Source: ChEMBL document CHEMBL5380782, “Design, Biological Evaluation, and Computer-Aided Analysis of Dihydrothiazepines as Selective Antichlamydial Agents” (J Med Chem, 2023)
In brackets after ≈: the same amount, converted by molar mass. Activity calls are given as the source filed them. No cut-off for these calls is given here.

Columns and labels:
Chlamydia trachomatis [1] = assay: Antibacterial activity against Chlamydia trachomatis serovar L2 infected in HEp-2 cells assessed as bacterial growth inhibition incubated for 16 hrs by IFA assay; assay type: functional, organism-based; details: serovar L2, HEp-2, 16 h
Chlamydia trachomatis [2] = assay: Antibacterial activity against Chlamydia trachomatis serovar L2 infected in HEp-2 cells assessed as bacterial growth inhibition at 25 to 0.39 ug/ml incubated for 16 hrs by IFA assay; assay type: functional, organism-based; details: dose 25-0.39 µg/ml
[3] = Cytotoxicity against HEp-2 cells assessed as cell viability at 256 ug/ml incubated for 20 hrs by XTT assay relative to control; assay type: toxicity, cell-based; details: human, at 256 µg/mL, read-out: Activity
Anaerostipes caccae = assay: Antimicrobial activity against Anaerostipes caccae […] assessed as microbial growth inhibition incubated for 48 hrs; assay type: functional
Acinetobacter baumannii = assay: Antimicrobial activity against Acinetobacter baumannii 2208 assessed as microbial growth inhibition incubated for 24 hrs by TTC staining based assay; assay type: functional
Escherichia coli [4] = assay: Antimicrobial activity against Escherichia coli K12 assessed as microbial growth inhibition incubated for 24 hrs by TTC staining based assay; assay type: functional
[5] = tested on: Lactiplantibacillus plantarum; assay: Antimicrobial activity against Lactobacillus plantarum DSM 20174 assessed as microbial growth inhibition incubated for 24 hrs; assay type: functional
[6] = tested on: Bacteroides thetaiotaomicron; assay: Antimicrobial activity against Bacteroides thetaiotaomicron DSM 2079 assessed as microbial growth inhibition incubated for 48 hrs; assay type: functional
Escherichia coli [7] = assay: Antimicrobial activity against non-pathogenic Escherichia coli ATCC MG1655 assessed as microbial growth inhibition incubated for 24 hrs by TTC staining based assay; assay type: functional
Staphylococcus aureus = assay: Antimicrobial activity against Staphylococcus aureus USA 300 JE2 assessed as microbial growth inhibition incubated for 24 hrs by TTC staining based assay; assay type: functional
Chlamydia trachomatis [8] = assay: Antibacterial activity against Chlamydia trachomatis L2 infected in HEp-2 cells assessed as inhibition of infectious progeny incubated for 24 hrs by fluorescence microscopy; assay type: functional, organism-based; details: L2, HEp-2, 24 h
Blautia producta = assay: Antimicrobial activity against Blautia producta DSM 2950 assessed as microbial growth inhibition incubated for 48 hrs; assay type: functional
Pseudomonas aeruginosa = assay: Antimicrobial activity against Pseudomonas aeruginosa PA01 assessed as microbial growth inhibition incubated for 24 hrs by TTC staining based assay; assay type: functional
Thomasclavelia ramosa = assay: Antimicrobial activity against Clostridium ramosum DSM 1402 assessed as microbial growth inhibition incubated for 48 hrs; assay type: functional
[9] = tested on: Lacticaseibacillus rhamnosus; assay: Antimicrobial activity against Lactobacillus rhamnosus CGMCC 1.3724 assessed as microbial growth inhibition incubated for 24 hrs by TTC staining based assay; assay type: functional
[10] = Cytotoxicity against HEK293 cells assessed as cell survival at 256 ug/ml incubated for 20 hrs by XTT assay relative to control; assay type: toxicity, cell-based; details: human, at 256 µg/mL, read-out: Survival
Chlamydia trachomatis [11] = assay: Inhibition of recombinant Chlamydia trachomatis ClpX ATPase activity assessed as reduction in ATP consumption at 25 ug/ml incubated for 60 mins by Kinase Glo assay relative to control; details: dose 25.0 µg/ml
[12] = Cytotoxicity against HEC-1-A cells assessed as cell survival at 256 ug/ml incubated for 20 hrs by XTT assay relative to control; assay type: toxicity, cell-based; details: human, at 256 µg/mL, read-out: Survival
[13] = Cytotoxicity against HEK293 cells assessed as cell viability at 25 ug/ml incubated for 20 hrs by XTT assay relative to control; assay type: toxicity, cell-based; details: human, at 25 µg/mL, read-out: Activity
Pichia kudriavzevii = assay: Antimicrobial activity against Pichia kudriavzevii 6558 assessed as microbial growth inhibition by broth microdilution method; assay type: functional
Candida tropicalis = assay: Antimicrobial activity against Candida tropicalis 750 assessed as microbial growth inhibition by broth microdilution method; assay type: functional
Nakaseomyces glabratus = assay: Antimicrobial activity against Candida glabrata 2001 assessed as microbial growth inhibition by broth microdilution method; assay type: functional
HEp-2 = assay: Cytotoxicity against HEp-2 cells assessed as cell viability at 25 ug/ml incubated for 20 hrs by XTT assay relative to control; assay type: toxicity, cell-based; details: human, hep-2, 20 h, at 25 µg/mL
Salmonella typhimurium [14] = assay: Mutagenicity in Salmonella typhimurium TA100 assessed as number of revertants per plate at 2.5 ug pretreated for 90 mins measured after 66 hrs in presence of S9 by AMES test (reference value: 201 +/- 9.90); assay type: functional, Salmonella enterica subsp. enterica serovar Typhimurium; details: dose 2.5 µg; time 67.5 hrs
Salmonella typhimurium [15] = assay: Mutagenicity in Salmonella typhimurium TA98 assessed as number of revertants per plate at 2.5 ug pretreated for 90 mins measured after 66 hrs in presence of S9 fraction by AMES test (reference value: 24.33 +/- 9.50); assay type: functional, Salmonella enterica subsp. enterica serovar Typhimurium; details: dose 2.5 µg; time 67.5 hrs
Salmonella typhimurium [16] = assay: Mutagenicity in Salmonella typhimurium TA98 assessed as number of revertants per plate at 10 ug pretreated for 90 mins measured after 66 hrs by AMES test (reference value: 25.67 +/- 5.51); assay type: functional, Salmonella enterica subsp. enterica serovar Typhimurium; details: dose 10 µg; time 67.5 hrs

SMILES | IC50 (Chlamydia trachomatis [1]; read-out: IC50) | IC50 (Chlamydia trachomatis [1]; read-out: pIC50 (converted)) [µM] | further results
O=C1C2=C(Nc3ccccc3SC2c2cccc(O)c2)c2ccccc21 (stereo not given) | 16.5 µg/mL | 45.7 | –
O=C1C2=C(Nc3ccccc3SC2c2ccc(OC(F)(F)F)cc2)c2ccccc21 (stereo not given) | 7.44 µg/mL | 17.4 | –
O=C1C2=C(Nc3ccccc3SC2c2ccc(-c3ccccc3)cc2)c2ccccc21 (stereo not given) | – | – | inhibition (Chlamydia trachomatis [2]): inactive
O=C1C2=C(Nc3ccccc3SC2c2ccc(Cl)cc2Cl)c2ccccc21 (stereo not given) | 6.37 µg/mL | 15.5 | –
COc1ccc(C2Sc3ccccc3N=C3C2=C(O)c2ccccc23)cc1 (stereo not given) | 14.7 µg/mL | – | –
O=C1C2=C(Nc3ccccc3SC2c2cccs2)c2ccccc21 (stereo not given) | 7.36 µg/mL | – | –
N#Cc1ccc(C2Sc3ccccc3NC3=C2C(=O)c2ccccc23)cc1 (stereo not given) | 10.2 µg/mL | – | –
COc1ccc(C2SCCNC3=C2C(=O)c2ccccc23)cc1 (stereo not given) | 16.1 µg/mL | – | –
O=C1C2=C(Nc3ccccc3SC2c2cccc(Cl)c2)c2ccccc21 (stereo not given) | 4.79 µg/mL | 12.9 | –
COc1ccccc1C1Sc2ccc(C(F)(F)F)cc2NC2=C1C(=O)c1ccccc12 (stereo not given) | 2.46 µM | 2.51 | viability at 20 h, 256 ug/ml [3]: 100%
Cc1ccc(C2SCCNC3=C2C(=O)c2ccccc23)cc1 (stereo not given) | 21.4 µg/mL | 69.2 | –
O=C(O)c1ccc(C2Sc3ccccc3NC3=C2C(=O)c2ccccc23)cc1 (stereo not given) | – | – | inhibition (Chlamydia trachomatis [2]): inactive
Nc1ccc(C2Sc3ccccc3NC3=C2C(=O)c2ccccc23)cc1 (stereo not given) | 17.6 µg/mL | 49 | –
N#Cc1ccc(C2Nc3ccccc3NC3=C2C(=O)c2ccccc23)cc1 (stereo not given) | 20.9 µg/mL | – | –
O=C1C2=C(Nc3ccccc3SC2c2ccc([N+](=O)[O-])cc2)c2ccccc21 (stereo not given) | 9.01 µg/mL | – | –
Cc1ccccc1C1Sc2ccccc2NC2=C1C(=O)c1ccccc12 (stereo not given) | 7.82 µM | 7.94 | –
O=C1C2=C(Nc3ccccc3SC2c2cccc(C(F)(F)F)c2)c2ccccc21 (stereo not given) | 5.18 µg/mL | – | –
O=C1C2=C(Nc3cc(C(F)(F)F)ccc3SC2c2ccc(Br)cc2)c2ccccc21 (stereo not given) | 6.93 µg/mL | – | –
CC[C@H]1OC(=O)[C@H](C)[C@@H](O[C@H]2C[C@@](C)(OC)[C@@H](O)[C@H](C)O2)[C@H](C)[C@@H](O[C@@H]2O[C@H](C)C[C@H](N(C)C)[C@H]2O)[C@](C)(O)C[C@@H](C)CN(C)[C@H](C)[C@@H](O)[C@]1(C)O [AZITHROMYCIN] | – | – | MIC (Anaerostipes caccae): > 125 µg/mL; MIC (Acinetobacter baumannii): < 1 µg/mL; MIC (Escherichia coli [4]): < 1 µg/mL; MIC [5]: 2 µg/mL (≈ 2.67 µM); MIC [6]: 0.5 µg/mL (≈ 0.668 µM); MIC (Escherichia coli [7]): 2 µg/mL (≈ 2.67 µM); MIC (Staphylococcus aureus): 2 µg/mL (≈ 2.67 µM); IC50 (Chlamydia trachomatis [8]): 0.06 µg/mL (≈ 0.0801 µM); MIC (Blautia producta): < 0.06 µg/mL; MIC (Pseudomonas aeruginosa): 125 µg/mL (≈ 167 µM); MIC (Thomasclavelia ramosa): < 0.06 µg/mL; MIC [9]: 1 µg/mL (≈ 1.34 µM)
O=C1C2=C(NCCSC2c2ccc(Br)cc2)c2ccccc21 (stereo not given) | 21.3 µg/mL | – | –

SMILES | IC50 (Chlamydia trachomatis [1]; read-out: IC50) | IC50 (Chlamydia trachomatis [1]; read-out: pIC50 (converted)) [µM] | further results
O=C1C2=C(Nc3ccccc3SC2c2ccc(Cl)cc2)c2ccccc21 (stereo not given) | 6.59 µg/mL | 17.4 | –
O=C1C2=C(Nc3ccccc3SC2c2cccc([N+](=O)[O-])c2)c2ccccc21 (stereo not given) | 6.35 µg/mL | – | –
COc1cccc(C2C3=C(Nc4ccccc4S2(=O)=O)c2ccccc2C3=O)c1 (stereo not given) | 10 µg/mL | – | –
COc1ccc(C2Sc3ccc(C(F)(F)F)cc3NC3=C2C(=O)c2ccccc23)cc1 (stereo not given) | 12.3 µg/mL | 28.2 | –
COc1ccc(C2Nc3ccccc3NC3=C2C(=O)c2ccccc23)cc1 (stereo not given) | 22.6 µg/mL | 53.7 | –
CC(=O)Oc1ccc(C2Sc3ccccc3NC3=C2C(=O)c2ccccc23)cc1 (stereo not given) | 7.18 µg/mL | – | –
Cc1cccc(C2Sc3ccccc3NC3=C2C(=O)c2ccccc23)c1F (stereo not given) | 4.69 µg/mL | 12.6 | viability at 20 h, 256 ug/ml [10]: ≥ 75%; inhibition (Chlamydia trachomatis [11]): 20%; viability at 20 h, 256 ug/ml [3]: 50%; IC50 (Chlamydia trachomatis [8]): 7.13 µg/mL (≈ 19.1 µM); viability at 20 h, 256 ug/ml [12]: ≥ 75%; viability at 20 h, 25 ug/ml [13]: 78%
OC(Cn1cncn1)(Cn1cncn1)c1ccc(F)cc1F [FLUCONAZOLE] | – | – | MIC (Pichia kudriavzevii): 16 µg/mL (≈ 52.2 µM); MIC (Candida tropicalis): 0.5 µg/mL (≈ 1.63 µM); MIC (Nakaseomyces glabratus): 2 µg/mL (≈ 6.53 µM)
COc1ccccc1C1Sc2ccccc2NC2=C1C(=O)c1ccccc12 (stereo not given) | 3.32 µg/mL | 8.91 | viability at 20 h, 256 ug/ml [10]: ≥ 75%; viability at 20 h, 256 ug/ml [3]: 50%; Activity (HEp-2): 73%; IC50 (Chlamydia trachomatis [8]): 6.41 µg/mL (≈ 17.3 µM); viability at 20 h, 256 ug/ml [12]: ≥ 75%
O=C1C2=C(Nc3ccccc3SC2c2ccccc2C(=O)O)c2ccccc21 (stereo not given) | – | – | inhibition (Chlamydia trachomatis [11]): 20%; inhibition (Chlamydia trachomatis [2]): inactive
O=C1C2=C(Nc3cc(C(F)(F)F)ccc3SC2c2cccs2)c2ccccc21 (stereo not given) | 6.53 µg/mL | – | –
Nc1ccc2cc3ccccc3cc2c1 [2-AMINOANTHRACENE] | – | – | Activity (Salmonella typhimurium [14]): 1256; Activity (Salmonella typhimurium [15]): 137
O=C1C2=C(Nc3ccccc3SC2c2ccc(O)cc2)c2ccccc21 (stereo not given) | 14.4 µg/mL | 39.8 | –
N#Cc1ccccc1C1Sc2ccc(C(F)(F)F)cc2NC2=C1C(=O)c1ccccc12 (stereo not given) | 1.61 µM | 1.62 | viability at 20 h, 256 ug/ml [3]: 100%
O=C1C2=C(Nc3ccccc3SC2c2ccc(OCc3ccccc3)cc2)c2ccccc21 (stereo not given) | 22.8 µg/mL | 51.3 | –
Cc1ccc(C2Sc3ccccc3NC3=C2C(=O)c2ccccc23)cc1 (stereo not given) | 6.72 µg/mL | – | –
N#Cc1cccc(C2Sc3ccccc3NC3=C2C(=O)c2ccccc23)c1 (stereo not given) | 9 µg/mL | – | –
N#Cc1ccc(C2SCCNC3=C2C(=O)c2ccccc23)cc1 (stereo not given) | – | – | inhibition (Chlamydia trachomatis [11]): 20%; inhibition (Chlamydia trachomatis [2]): inactive
Nc1ccc([N+](=O)[O-])cc1N | – | – | Activity (Salmonella typhimurium [16]): 34.5
Cc1ccc(C2Nc3ccccc3NC3=C2C(=O)c2ccccc23)cc1 (stereo not given) | 15 µg/mL | – | –
